Results reported in patent US20210128724A1 (priority 2019, published 2021).

Key:
[1] = set-up: species or system human; conditions: in vivo; for Development of post-traumatic syndrome after treatment within the first day after blast injury: sc
[2] = set-up: species or system human; conditions: in vivo
[3] = test system: C-fibers in the trigeminal ganglion; conditions: rat, in vivo
[4] = test system: neurons in the trigeminal ganglion; conditions: rat, in vivo
[5] = test system: Aδ-fibers in the trigeminal ganglion; conditions: rat, in vivo
[6] = test system: trigeminovascular Aδ-nociceptors, high threshold (HT) neurons, C-fiber and wide dynamic range (WDR) neurons; conditions: rat, in vivo

| Molecule | Outcome after treatment once symptoms had developed after blast injury [1] | Development of post-traumatic syndrome after treatment within the first day after blast injury [1] | Outcome after treatment following 1 month of symptoms after head injury [2] | Outcome after treatment promptly after head injury, before onset of symptoms [2] | Baseline firing rate, C-fibers [3] | Effect on response to CSD in unmyelinated C-fibers [3] | Baseline firing rate prior to CSD [4] | Baseline firing rate, Aδ-neurons [5] | Effect on response to CSD in Aδ-neurons [5] | Activation of C-fiber and wide dynamic range (WDR) neurons [6] | Activation of trigeminovascular Aδ-nociceptors and high threshold (HT) neurons [6] |
| --- | --- | --- | --- | --- | --- | --- | --- | --- | --- | --- | --- |
| onabotulinumtoxinA [BoNT-A] | headaches resolve a month after their treatment with decreased photophobia, dizziness, tinnitus and insomnia | do not develop any features of a post-traumatic syndrome | headaches are lessened in severity and frequency, they experience improved sleep and improved cognition | continues to do well | 0.7 spikes/sec | inhibited the response to CSD | 0.7 Hz | 0.7 spikes/sec | no significant difference | – | – |
| fremanezumab | – | – | – | – | – | – | – | – | – | not | blocked the activation |
| Galcanezumab (antibody, chains of the INN, looked up, V domains shown) VH: QVQLVQSGAEVKKPGSSVKVSCKASGYTFGNYWMQWVRQAPGQGLEWMGAIYEGTGKTVYIQKFADRVTITADKSTSTAYMELSSLRSEDTAVYYCARLSDYVSGFGYWGQGTTVTVSS VL: DIQMTQSPSSLSASVGDRVTITCRASKDISKYLNWYQQKPGKAPKLLIYYTSGYHSGVPSRFSGSGSGTDFTLTISSLQPEDFATYYCQQGDALPPTFGGGTKVEIK | – | do not develop any features of a post-traumatic syndrome | – | – | – | – | – | – | – | – | – |
